Measured values taken from US20020137929A1, “1 - (3-heterocyclylphenyl) isothiourea, -isourea, -guanidine and -amidine herbicidal agents” (Intellectual Property Department, BASF Aktiengesellschaft, priority 1998, published 2002).

Key:
[1] = test system: ABUTH (Velvetleaf); assay: Postemergence herbicidal evaluation; format: in vivo, Abutilon theophrasti; settings: postemergence
In short: (§1)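 Compound is applied as a foliar spray to seedlings about two weeks old, formulated in equal parts acetone and water with 0.5% TWEEN 20 and delivered at 40 psi to give about 0.0156–0.500 kg per hectare. Injury is rated visually 0–9 after four to five weeks.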

[2] = test system: GALAP (Galium); assay: Postemergence herbicidal evaluation; format: in vivo, Galium aparine; settings: postemergence
In short: as §1

[3] = test system: GALAP (Galium); assay: Preemergence herbicidal evaluation; format: in vivo, Galium aparine; settings: rated 4-5 weeks after treatment
In short: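 Sown cups got a single aqueous acetone spray of test compound (roughly 0.0156–0.500 kg/ha) before seedlings emerged. Evaluation, 4–5 weeks on, used a 0–9 visual scale covering plant stand, vigor, size, malformation, chlorosis and general appearance compared with controls.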

[4] = rate 0.0156 kg/ha, rating scale 0-9
[5] = rate 0.0625 kg/ha, rating scale 0-9
[6] = rate 0.1250 kg/ha, rating scale 0-9
[7] = rate 0.2500 kg/ha, rating scale 0-9
[8] = rate 0.0313 kg/ha, rating scale 0-9

| SMILES | herbicidal rating ABUTH ([1]; rate 0.0156 kg/ha) | herbicidal rating ABUTH ([1]; rate 0.0313 kg/ha) | herbicidal rating ABUTH ([1]; rate 0.0625 kg/ha) | herbicidal rating GALAP ([2]; rate 0.0156 kg/ha) | herbicidal rating GALAP ([2]; rate 0.0313 kg/ha) | herbicidal rating GALAP ([2]; rate 0.0625 kg/ha) | Preemergence herbicidal rating GALAP ([3]; rate 0.0156 kg/ha) | Preemergence herbicidal rating GALAP ([3]; rate 0.0313 kg/ha) | Preemergence herbicidal rating GALAP ([3]; rate 0.0625 kg/ha) | Preemergence herbicidal rating GALAP ([3]; rate 0.1250 kg/ha) | Preemergence herbicidal rating GALAP ([3]; rate 0.2500 kg/ha) | Preemergence herbicidal rating GALAP ([3]; rate 0.5000 kg/ha) | herbicidal rating ABUTH ([1]; rate 0.1250 kg/ha) | herbicidal rating GALAP ([2]; rate 0.1250 kg/ha) | Preemergence herbicidal rating GALAP [3, 4] | Preemergence herbicidal rating GALAP [3, 5] | Preemergence herbicidal rating GALAP [3, 6] | Preemergence herbicidal rating GALAP [3, 7] | Preemergence herbicidal rating GALAP [3, 8] |
| --- | --- | --- | --- | --- | --- | --- | --- | --- | --- | --- | --- | --- | --- | --- | --- | --- | --- | --- | --- |
| Cn1c(C(F)(F)F)cc(=O)n(-c2cc(N=C3SCC(=O)N3CC(=O)OCC3CC3)c(Cl)cc2F)c1=O [Compound 124, Cyclopropylmethyl 2-{{2-chloro-5-[3,6-dihydro-3-methyl-2,6-dioxo-4-(trifluoromethyl)-1(2H)-pyrimidinyl]-4-fluorophenyl}imino}-4-oxo-3-thiazolidineacetate] | 7.0 | 9.0 | 9.0 | 0.0 | 1.0 | 6.0 | 0.0 | 0.0 | 0.0 | 0.0 | 6.0 | 7.0 | – | – | – | – | – | – | – |
| CCOC(=O)CN1C(=O)C(SC)SC1=Nc1cc(-n2c(=O)cc(C(F)(F)F)n(C)c2=O)c(F)cc1Cl (stereo not shown) [Compound 125, Ethyl 2-{{2-chloro-5-[3,6-dihydro-3-methyl-2,6-dioxo-4-(trifluoromethyl)-1(2H)-pyrimidinyl]-4-fluorophenyl}imino}-5-(methylthio)-4-oxo-3-thiazolidineacetate] | 9.0 | 9.0 | 9.0 | 1.0 | 2.0 | 5.0 | 0.0 | 0.0 | 0.0 | 1.0 | 7.0 | 9.0 | – | – | – | – | – | – | – |
| CCOC(=O)CN1C(=O)C(Cl)SC1=Nc1cc(-n2c(=O)cc(C(F)(F)F)n(C)c2=O)c(F)cc1Cl (stereo not shown) [Compound 126, Ethyl 5-chloro-2-{{2-chloro-5-[3,6-dihydro-3-methyl-2,6-dioxo-4-(trifluoromethyl)-1(2H)-pyrimidinyl]-4-fluorophenyl}imino}-4-oxo-3-thiazolidineacetate] | 5.0 | 9.0 | 9.0 | 0.0 | 0.0 | 0.0 | – | – | 0.0 | 0.0 | 9.0 | 9.0 | 9.0 | 3.0 | – | – | – | – | – |
| CCOC(=O)CN1C(=O)C(C(=O)OCC)SC1=Nc1cc(-n2c(=O)cc(C(F)(F)F)n(C)c2=O)c(F)cc1Cl (stereo not shown) [Compound 127, 5-Carboxy-2-{{2-chloro-5-[3,6-dihydro-3-methyl-2,6-dioxo-4-(trifluoromethyl)-1(2H)-pyrimidinyl]-4-fluorophenyl}imino}-4-oxo-3-thiazolidineacetic acid, diethyl ester] | 9.0 | 9.0 | 9.0 | 0.0 | 0.0 | 2.0 | – | 0.0 | 3.0 | 3.0 | 7.0 | 9.0 | 9.0 | 3.0 | – | – | – | – | – |
| Cc1cccc(CN2C(=O)CSC2=Nc2cc(-n3c(=O)cc(C(F)(F)F)n(C)c3=O)c(F)cc2Cl)c1 [Compound 130, 3-{4-Chloro-2-fluoro-5-{[3-(m-methylbenzyl)-4-oxo-2-thiazolidinylidene]amino}phenyl}-1-methyl-6-(trifluoromethyl)-2,4 (1H, 3H)-pyrimidinedione] | 9.0 | 9.0 | 9.0 | 2.0 | 3.0 | 5.0 | – | – | – | – | – | – | – | – | 0.0 | 0.0 | 2.0 | 2.0 | – |
| COc1cccc(CN2C(=O)CSC2=Nc2cc(-n3c(=O)cc(C(F)(F)F)n(C)c3=O)c(F)cc2Cl)c1 [Compound 137, 3-{4-Chloro-2-fluoro-5-{[3-(m-methoxybenzyl)-4-oxo-2-thiazolidinylidene]amino}phenyl}-1-methyl-6-(trifluoromethyl)-2,4(1H,3H)-pyrimidinedione] | 9.0 | 9.0 | 9.0 | 1.0 | 1.0 | 3.0 | – | – | – | – | – | – | – | – | – | 0.0 | 0.0 | 0.0 | – |
| COc1ccc(CN2C(=O)CSC2=Nc2cc(-n3c(=O)cc(C(F)(F)F)n(C)c3=O)c(F)cc2Cl)c(OC)c1 [Compound 139, 3-{4-Chloro-5-{[3-(2,4-dimethoxybenzyl)-4-oxo-2-thiazolidinylidene]amino}-2-fluorophenyl}-1-methyl-6-(trifluoromethyl)-2,4(1H,3H)-pyrimidinedione] | 9.0 | 9.0 | 9.0 | 1.0 | 3.0 | 4.0 | – | – | – | – | – | – | – | – | 0.0 | 0.0 | 0.0 | 0.0 | 0.0 |
| Cn1c(C(F)(F)F)cc(=O)n(-c2cc(N=C3SCC(=O)N3Cc3cccc(C(F)(F)F)c3)c(Cl)cc2F)c1=O [Compound 142, 3-{4-Chloro-2-fluoro-5-{{3-[m-(trifluoromethyl)benzyl]-4-oxo-2-thiazolidinylidene}-amino}phenyl}-1-methyl-6-(trifluoromethyl)-2,4(1H,3H)-pyrimidinedione] | 3.0 | 9.0 | 9.0 | 0.0 | 1.0 | 1.0 | – | – | – | – | – | – | – | – | 0.0 | 0.0 | 0.0 | 9.0 | 0.0 |
| Cn1c(C(F)(F)F)cc(=O)n(-c2cc(N=C3SCC(=O)N3Cc3ccccc3Cl)c(Cl)cc2F)c1=O [Compound 143] | 9.0 | 9.0 | 9.0 | 0.0 | 1.0 | 3.0 | – | – | – | – | – | – | – | – | – | 0.0 | 1.0 | 0.0 | 0.0 |
